We go through twelve molecules from patent US20240116985A1, “STAPLED PEPTIDES AND METHODS THEREOF” (priority 2020, published 2024).

In test [1] the target is T1, full-length beta-Catenin (Uniprot ID P35222) (Homo sapiens, UniProt P35222).
T1 construct: 10 nM full-length beta-Catenin (Uniprot ID P35222)
T1 sequence (P35222 1-781): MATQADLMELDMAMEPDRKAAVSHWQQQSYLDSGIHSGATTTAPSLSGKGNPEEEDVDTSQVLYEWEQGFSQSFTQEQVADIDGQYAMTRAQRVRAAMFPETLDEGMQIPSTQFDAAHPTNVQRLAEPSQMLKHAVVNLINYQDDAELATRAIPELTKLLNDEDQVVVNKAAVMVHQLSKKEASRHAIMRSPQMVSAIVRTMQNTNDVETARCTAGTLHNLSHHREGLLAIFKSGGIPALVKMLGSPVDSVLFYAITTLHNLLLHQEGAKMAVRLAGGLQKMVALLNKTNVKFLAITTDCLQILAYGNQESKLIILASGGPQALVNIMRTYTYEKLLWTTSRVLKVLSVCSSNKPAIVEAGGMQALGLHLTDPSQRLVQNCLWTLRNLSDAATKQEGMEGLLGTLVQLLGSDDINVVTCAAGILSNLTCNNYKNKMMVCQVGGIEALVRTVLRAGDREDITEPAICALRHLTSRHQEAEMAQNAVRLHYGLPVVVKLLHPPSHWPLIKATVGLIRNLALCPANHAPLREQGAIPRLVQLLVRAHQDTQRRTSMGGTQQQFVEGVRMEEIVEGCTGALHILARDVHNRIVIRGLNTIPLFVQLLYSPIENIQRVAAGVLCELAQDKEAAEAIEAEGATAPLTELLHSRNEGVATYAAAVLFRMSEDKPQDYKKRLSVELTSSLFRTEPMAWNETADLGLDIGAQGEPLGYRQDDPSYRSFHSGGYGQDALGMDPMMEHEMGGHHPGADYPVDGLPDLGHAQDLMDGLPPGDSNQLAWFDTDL
Nature of the test: Fluorescence polarization IC50 (beta-catenin / 5FAM-TCF4 10-53 competition). Particulars: fluorescence polarization; read-out: beta-Catenin FP IC50. It counts as binding.

Test [2] concerns the target T2, beta-catenin/TCF4 engagement (Homo sapiens, UniProt P35222).
T2 construct: expressed in transfected cells; host or cells: HEK293
T2 sequence (P35222 1-781): T1 sequence (P35222 1-781)
The experiment in a line: Nano-BRET target engagement assay (B-cat-Halo & TCF4-Luc in HEK293 cells). Type of test: cell-based. To be noted: absolute IC50; read-out: NanoBRET Abs IC50.

For `CC(=O)N1CCC[C@]12CC=CCCCC1(CCCC=CCCCOC(=O)N3CC[C@@](C(=O)N[C@@H](Cc4ccccc4C(F)(F)F)C(=O)N[C@H](C(=O)N[C@@H](CCC(N)=O)C(N)=O)[C@@H](C)c4csc5ccccc45)(C3)NC(=O)[C@H](CC(C)C)NC(=O)[C@H](Cc3ccccc3)NC(=O)[C@H](C)NC(=O)[C@H](C)NC(=O)[C@H](Cc3cccc(C(=O)O)c3)NC(=O)[C@H](CC(=O)O)NC1=O)NC(=O)[C@H](CC(C)(C)C)NC(=O)[C@H](CC(=O)O)NC2=O` (stereo partly drawn) [I-2456, Ac-PL3-Asp-Npg-B5-Asp-3COOHF-Ala-Ala-Phe-Leu-PyrS2-2F3MeF-SbMeBztA-Gln-NH2], the IC50 amounted to 0.049 µM in test [1] and 8.1 µM in test [2].
Regarding `CC(=O)N1CCC[C@]12CC=CCCCC1(CCCC=CCCCOC(=O)N3CC[C@@](C(=O)N[C@@H](Cc4ccccc4C(F)(F)F)C(=O)N[C@H](C(=O)N[C@@H](C)C(N)=O)[C@@H](C)c4csc5ccccc45)(C3)NC(=O)[C@H](CC(C)C)NC(=O)[C@H](Cc3ccccc3)NC(=O)[C@H](C)NC(=O)[C@H](CCC(N)=O)NC(=O)[C@H](Cc3cccc(C(=O)O)c3)NC(=O)[C@H](CC(=O)O)NC1=O)NC(=O)[C@H](CC(C)(C)C)NC(=O)[C@H](CC(=O)O)NC2=O` (stereo partly drawn) [I-2457, Ac-PL3-Asp-Npg-B5-Asp-3COOHF-Gln-Ala-Phe-Leu-PyrS2-2F3MeF-SbMeBztA-Ala-NH2], the IC50 in test [1] was 0.052 µM; in test [2] it was 20.8 µM.
Turning to `CC(=O)N1CCC[C@]12CC=CCCCC1(CCCC=CCCCOC(=O)N3CC[C@@](C(=O)N[C@@H](Cc4ccccc4C(F)(F)F)C(=O)N[C@H](C(=O)N[C@@H](CCC(N)=O)C(N)=O)[C@H](C)c4csc5ccccc45)(C3)NC(=O)[C@H](CC(C)C)NC(=O)[C@H](Cc3ccccc3)NC(=O)[C@H](C)NC(=O)[C@H](C)NC(=O)[C@H](Cc3cccc(C(=O)O)c3)NC(=O)[C@H](CC(=O)O)NC1=O)NC(=O)[C@H](CC(C)(C)C)NC(=O)[C@H](CC(=O)O)NC2=O` (stereo partly drawn) [I-2458, Ac-PL3-Asp-Npg-B5-Asp-3COOHF-Ala-Ala-Phe-Leu-PyrS2-2F3MeF-RbMeBztA-Gln-NH2], the half-maximal inhibitory concentration (IC50) in test [1] is 0.033 µM; in test [2], 5.9 µM.
As to `CC(=O)N1CCC[C@]12CC=CCCCC1(CCCC=CCCCOC(=O)N3CC[C@@](C(=O)N[C@@H](Cc4ccccc4C(F)(F)F)C(=O)N[C@H](C(=O)N[C@@H](C)C(N)=O)[C@H](C)c4csc5ccccc45)(C3)NC(=O)[C@H](CC(C)C)NC(=O)[C@H](Cc3ccccc3)NC(=O)[C@H](C)NC(=O)[C@H](CCC(N)=O)NC(=O)[C@H](Cc3cccc(C(=O)O)c3)NC(=O)[C@H](CC(=O)O)NC1=O)NC(=O)[C@H](CC(C)(C)C)NC(=O)[C@H](CC(=O)O)NC2=O` (stereo partly drawn) [I-2459, Ac-PL3-Asp-Npg-B5-Asp-3COOHF-Gln-Ala-Phe-Leu-PyrS2-2F3MeF-RbMeBztA-Ala-NH2], the IC50 in test [1] came to 0.056 µM; in test [2], 15.1 µM.
Consider `CC(=O)N1CCC[C@]12CC=CCCCC1(CCCC=CCCCOC(=O)N3CC[C@@](C(=O)N[C@@H](Cc4ccccc4C(F)(F)F)C(=O)N[C@@H](Cc4ccc5ccccc5c4)C(=O)N[C@@H](CCC(N)=O)C(N)=O)(C3)NC(=O)[C@H](CC(C)C)NC(=O)[C@H](Cc3ccccc3)NC(=O)[C@H](C)NC(=O)[C@H](C)NC(=O)[C@H](Cc3cccc(C(=O)O)c3)NC(=O)[C@H](CC(=O)O)NC1=O)NC(=O)[C@H](CC(C)(C)C)NC(=O)[C@H](CC(=O)O)NC2=O` (stereo partly drawn) [I-2460, Ac-PL3-Asp-Npg-B5-Asp-3COOHF-Ala-Ala-Phe-Leu-PyrS2-2F3MeF-2NapA-Gln-NH2], for which the IC50 came out at 0.082 µM in test [1] and 12.8 µM in test [2].
Consider `CC(=O)N1CCC[C@]12CC=CCCCC1(CCCC=CCCCOC(=O)N3CC[C@@](C(=O)N[C@@H](Cc4ccccc4C(F)(F)F)C(=O)N[C@H](C(=O)N[C@@H](CCC(N)=O)C(N)=O)[C@H](C)c4ccc5ccccc5c4)(C3)NC(=O)[C@H](CC(C)C)NC(=O)[C@H](Cc3ccccc3)NC(=O)[C@H](C)NC(=O)[C@H](C)NC(=O)[C@H](Cc3cccc(C(=O)O)c3)NC(=O)[C@H](CC(=O)O)NC1=O)NC(=O)[C@H](CC(C)(C)C)NC(=O)[C@H](CC(=O)O)NC2=O` (stereo partly drawn) [I-2462, Ac-PL3-Asp-Npg-B5-Asp-3COOHF-Ala-Ala-Phe-Leu-PyrS2-2F3MeF-RbMe2NapA-Gln-NH2], for which the results for the half-maximal inhibitory concentration (IC50) in test [1] and in test [2] were 0.04 µM and 4.7 µM, respectively.
Consider `CC(=O)N1CCC[C@]12CC=CCCCC1(CCCC=CCCCOC(=O)N3CC[C@@](C(=O)N[C@@H](Cc4ccccc4C(F)(F)F)C(=O)N[C@H](C(=O)N[C@@H](C)C(N)=O)[C@H](C)c4ccc5ccccc5c4)(C3)NC(=O)[C@H](CC(C)C)NC(=O)[C@H](Cc3ccccc3)NC(=O)[C@H](C)NC(=O)[C@H](CCC(N)=O)NC(=O)[C@H](Cc3cccc(C(=O)O)c3)NC(=O)[C@H](CC(=O)O)NC1=O)NC(=O)[C@H](CC(C)(C)C)NC(=O)[C@H](CC(=O)O)NC2=O` (stereo partly drawn) [I-2463, Ac-PL3-Asp-Npg-B5-Asp-3COOHF-Gln-Ala-Phe-Leu-PyrS2-2F3MeF-RbMe2NapA-Ala-NH2], for which the 50% inhibitory concentration (IC50) in test [1] worked out at 0.047 µM; in test [2], 6.5 µM.
Regarding `CC(=O)N1CCC[C@]12CC=CCCCC1(CCCC=CCCCOC(=O)N3CC[C@@](C(=O)N[C@@H](Cc4ccccc4C(F)(F)F)C(=O)N[C@H](C(=O)N[C@@H](CCC(N)=O)C(N)=O)[C@@H](C)c4ccc5ccccc5c4)(C3)NC(=O)[C@H](CC(C)C)NC(=O)[C@H](Cc3ccccc3)NC(=O)[C@H](C)NC(=O)[C@H](C)NC(=O)[C@H](Cc3cccc(C(=O)O)c3)NC(=O)[C@H](CC(=O)O)NC1=O)NC(=O)[C@H](CC(C)(C)C)NC(=O)[C@H](CC(=O)O)NC2=O` (stereo partly drawn) [I-2464, Ac-PL3-Asp-Npg-B5-Asp-3COOHF-Ala-Ala-Phe-Leu-PyrS2-2F3MeF-SbMe2NapA-Gln-NH2], the half-inhibitory concentration (IC50) was 0.079 µM in test [1] and 16.5 µM in test [2].
Take `CC(=O)N1CCC[C@]12CC=CCCCC1(CCCC=CCCCOC(=O)N3CC[C@@](C(=O)N[C@@H](Cc4ccccc4C(F)(F)F)C(=O)N[C@H](C(=O)N[C@@H](C)C(N)=O)[C@@H](C)c4ccc5ccccc5c4)(C3)NC(=O)[C@H](CC(C)C)NC(=O)[C@H](Cc3ccccc3)NC(=O)[C@H](C)NC(=O)[C@H](CCC(N)=O)NC(=O)[C@H](Cc3cccc(C(=O)O)c3)NC(=O)[C@H](CC(=O)O)NC1=O)NC(=O)[C@H](CC(C)(C)C)NC(=O)[C@H](CC(=O)O)NC2=O` (stereo partly drawn) [I-2465, Ac-PL3-Asp-Npg-B5-Asp-3COOHF-Gln-Ala-Phe-Leu-PyrS2-2F3MeF-SbMe2NapA-Ala-NH2]: the IC50 in test [1] was 0.164 µM; in test [2], over 20 µM.
Turning to `CCNC(=O)CC[C@H](NC(=O)[C@H](Cc1csc2ccccc12)NC(=O)[C@H](Cc1ccsc1)NC(=O)[C@]12CCN(C1)C(=O)OCCCC=CCCCC1(CCCC=CC[C@]3(CCCN3C(C)=O)C(=O)N[C@@H](CC(=O)O)C(=O)N[C@@H](CC(C)(C)C)C(=O)N1)C(=O)N[C@@H](CC(=O)O)C(=O)N[C@@H](CN(CC(=O)O)CC(F)(F)F)C(=O)N[C@@H](C)C(=O)N[C@@H](C)C(=O)N[C@@H](Cc1ccccc1)C(=O)N[C@@H](CC(C)C)C(=O)N2)C(=O)N[C@@H](C)C(N)=O` (stereo partly drawn) [I-2471, Ac-PL3-Asp-Npg-B5-Asp-TfeGA-Ala-Ala-Phe-Leu-PyrS2-3Thi-BztA-[NHEt]GlnR-Ala-NH2], the concentration for half-maximal inhibition (IC50) in test [1] worked out at 0.014 µM; in test [2], 2.1 µM.
Taken in the same sequence, the figures for `CCNC(=O)CC[C@H](NC(=O)[C@H](Cc1csc2ccccc12)NC(=O)[C@H](Cc1ccccc1C(F)(F)F)NC(=O)[C@]12CCN(C1)C(=O)OCCCC=CCCCC1(CCCC=CC[C@]3(CCCN3C(C)=O)C(=O)N[C@@H](CC(=O)O)C(=O)N[C@@H](CC(C)(C)C)C(=O)N1)C(=O)N[C@@H](CC(=O)O)C(=O)N[C@@H](Cc1cccc(C(=O)O)c1)C(=O)N[C@@H](C)C(=O)N[C@@H](C)C(=O)N[C@@H](Cc1ccccc1)C(=O)N[C@@H](CC)C(=O)N2)C(=O)N[C@@H](C)C(N)=O` (stereo partly drawn) [I-2472, Ac-PL3-Asp-Npg-B5-Asp-3COOHF-Ala-Ala-Phe-Abu-PyrS2-2F3MeF-BztA-INHEt]GlnR-Ala-NH2] were 0.013 µM and 1.8 µM.
Taken in the same sequence, the figures for `CC(=O)N1CCC[C@]12CC=CCCCC1(CCCC=CCCCOC(=O)N3CC[C@@](C(=O)N[C@@H](Cc4ccsc4)C(=O)N[C@@H](Cc4csc5ccccc45)C(=O)N[C@@H](CCCCN)C(N)=O)(C3)NC(=O)[C@H](CC(N)=O)NC(=O)[C@H](Cc3ccccc3)NC(=O)[C@H](C)NC(=O)C(C)(C)NC(=O)[C@H]([C@@H](C)O)NC(=O)[C@H](CC(N)=O)NC1=O)NC(=O)[C@H](CC(C)(C)C)NC(=O)[C@H](CC(=O)O)NC2=O` (stereo partly drawn) [I-2477, Ac-PL3-Asp-Npg-B5-Asn-Thr-Aib-Ala-Phe-Asn-PyrS2-3Thi-BztA-Lys-NH2] were 0.165 µM and over 20 µM.
